Reference: US11213499B1, “Use of 3,3′-diselenodipropionic acid (DSePA) as an anticancer agent” (Secretary, Department of Atomic Energy, priority 2020, dated 2022)

Experiments:
[1] = system: Vero (Monkey kidney transformed epithelial cell line (normal)); experiment: SRB/MTT assay, normal Vero cells; type: cell-based
Description: (§1) The anticancer effect of DSePA was evaluated using a panel of twenty-five human cancer cell lines of different tissue origins. Cells were treated with the increasing concentrations (0.1-100 μM) of DSePA for 48 h and viability was monitored by (Sulforhodamine B) SRB assay or MTT assay.
(§2) Cell culture and DSePA synthesis—DSePA was synthesized and characterized as described in our previous reports. Cell lines were cultured in growth medium (DMEM/RPMI) supplemented with 10% FBS, 100 U/ml penicillin and 100 μg/ml streptomycin at 37° C. in a humidified 5% CO2 environment. The stock solution of DSePA was prepared fresh in cell culture medium and diluted with the same to achieve the desired concentrations.
(§3) SRB/MTT Assay—To evaluate the anti-proliferative effect of DSePA, Cells (˜5×10^3) suspended in 100 μl of complete culture medium were seeded in each well of 96 well plates. The cells were allowed to attach and grow for 24 h, treated with desired concentrations of DSePA dissolved in culture medium for 48 h and then processed for SRB/MTT assay as described in literature. The percentage (%) cytotoxicity was calculated from the decrease in absorbance as compared to that of control group.

[2] = system: CHO (Chinese Hamster Ovary (normal)); experiment: SRB/MTT assay, normal CHO cells; type: cell-based
Description: as §1, §2, §3

SMILES: O=C(O)CC[Se][Se]CCC(=O)O [DSePA, 3,3′-diselenodipropionic acid]
- GI50 ([1]; Primates, Vero normal cells, 48 hours treatment, SRB/MTT assay, read-out: GI50 (Concentration of drug causing 50% inhibition of cell growth)): > 100 µM
- toxicity in normal cell types ([1]; Vero, 0.1-100 μM, 48 h): did not show toxicity
- toxicity in normal cell types ([2]; CHO, 0.1-100 μM, 48 h): did not show toxicity
- GI50 ([2]; Cricetulus griseus, CHO normal cells, 48 hours treatment, SRB/MTT assay, read-out: GI50 (Concentration of drug causing 50% inhibition of cell growth)): > 100 µM
